# Assays:
# Aspergillus fumigatus [1] = assay: Antifungal activity against Aspergillus fumigatus RCMB 002568 assessed as diameter of inhibition zone at 1 mg/mL after 48 hrs by agar well diffusion method; format: functional; settings: RCMB 002568, 48 h, read-out: DIZ
# MCF7 [2] = assay: Potency index, ratio of 5-fluorouracil IC50 to test compound IC50 for human MCF7 cells; format: functional
# Pseudomonas aeruginosa [3] = assay: Antibacterial activity against Pseudomonas aeruginosa RCMB 010043 after 24 to 48 hrs by agar well diffusion method; format: functional
# Candida albicans [4] = assay: Antifungal activity against Candida albicans RCMB 005036 after 24 to 48 hrs by agar well diffusion method; format: functional
# Streptococcus pneumoniae [5] = assay: Antibacterial activity against Streptococcus pneumoniae RCMB 010010 assessed as diameter of inhibition zone at 1 mg/mL after 24 to 48 hrs by agar well diffusion method; format: functional; settings: read-out: DIZ
# Escherichia coli [6] = assay: Antibacterial activity against Escherichia coli RCMB 010052 after 24 to 48 hrs by agar well diffusion method; format: functional
# Pseudomonas aeruginosa [7] = assay: Antibacterial activity against Pseudomonas aeruginosa RCMB 010043 assessed as diameter of inhibition zone at 1 mg/mL after 24 to 48 hrs by agar well diffusion method; format: functional; settings: read-out: DIZ
# Aspergillus fumigatus [8] = assay: Antifungal activity against Aspergillus fumigatus RCMB 002568 after 24 to 48 hrs by agar well diffusion method; format: functional
# Bacillus subtilis [9] = assay: Antibacterial activity against Bacillus subtilis RCMB 010067 after 24 to 48 hrs by agar well diffusion method; format: functional
# Candida albicans [10] = assay: Antifungal activity against Candida albicans RCMB 005036 assessed as diameter of inhibition zone at 1 mg/mL after 24 to 48 hrs by agar well diffusion method; format: functional; settings: read-out: DIZ
# MCF7 [11] = assay: (§1) Cytotoxicity against human MCF7 cells assessed as decrease in cell viability after 24 hrs by MTT assay; format: functional, cell-based
# [12] = as §1; format: functional, cell-based; settings: MCF7, 24 h
# Streptococcus pneumoniae [13] = assay: Antibacterial activity against Streptococcus pneumoniae RCMB 010010 after 24 to 48 hrs by agar well diffusion method; format: functional
# Escherichia coli [14] = assay: Antibacterial activity against Escherichia coli RCMB 010052 assessed as diameter of inhibition zone at 1 mg/mL after 24 to 48 hrs by agar well diffusion method; format: functional; settings: read-out: DIZ
# Bacillus subtilis [15] = assay: Antibacterial activity against Bacillus subtilis RCMB 010067 assessed as diameter of inhibition zone at 1 mg/mL after 24 to 48 hrs by agar well diffusion method; format: functional; settings: read-out: DIZ
structure (smiles),measurement,setting,value
COc1cc(NS(=O)(=O)c2ccc(NC(=S)NC3CCN(Cc4ccccc4)CC3)cc2)nc(OC)n1,zone of inhibition at 1000 µg/mL,Aspergillus fumigatus [1],14.2 mm
same,Ratio IC50,MCF7 [2],3
same,MIC,Pseudomonas aeruginosa [3],500 µg/mL
same,MIC,Candida albicans [4],125 µg/mL
same,zone of inhibition at 1000 µg/mL,Streptococcus pneumoniae [5],17.3 mm
same,MIC,Escherichia coli [6],62.5 µg/mL
same,zone of inhibition at 1000 µg/mL,Pseudomonas aeruginosa [7],8.2 mm
same,MIC,Aspergillus fumigatus [8],125 µg/mL
same,MIC,Bacillus subtilis [9],7.81 µg/mL
same,zone of inhibition at 1000 µg/mL,Candida albicans [10],12.7 mm
same,Activity,MCF7 [11],Dose-dependent effect
same,IC50,[12],1.72 µg/mL
same,MIC,Streptococcus pneumoniae [13],15.6 µg/mL
same,zone of inhibition at 1000 µg/mL,Escherichia coli [14],16.3 mm
same,zone of inhibition at 1000 µg/mL,Bacillus subtilis [15],18.4 mm

# Source: ChEMBL document CHEMBL3875150, “Biological evaluation of some new N-(2,6-dimethoxypyrimidinyl) thioureido benzenesulfonamide derivatives as potential antimicrobial and anticancer agents” (Eur J Med Chem, 2016)
